The values that follow come from US20140135310A1, “SULPHONAMIDE DERIVATIVES OF ALICYCLIC AMINES FOR THE TREATMENT OF CENTRAL NERVOUS SYSTEM DISEASES” (Adamed Sp. z o.o., priority 2011, published 2014).

Experiment [1] addresses T1, 5-HT1A receptor (rat hippocampus) (Rattus norvegicus, UniProt P19327).
T1 construct: hippocampus; from tissue; host or cells: rat hippocampus
T1 sequence (P19327 1-422): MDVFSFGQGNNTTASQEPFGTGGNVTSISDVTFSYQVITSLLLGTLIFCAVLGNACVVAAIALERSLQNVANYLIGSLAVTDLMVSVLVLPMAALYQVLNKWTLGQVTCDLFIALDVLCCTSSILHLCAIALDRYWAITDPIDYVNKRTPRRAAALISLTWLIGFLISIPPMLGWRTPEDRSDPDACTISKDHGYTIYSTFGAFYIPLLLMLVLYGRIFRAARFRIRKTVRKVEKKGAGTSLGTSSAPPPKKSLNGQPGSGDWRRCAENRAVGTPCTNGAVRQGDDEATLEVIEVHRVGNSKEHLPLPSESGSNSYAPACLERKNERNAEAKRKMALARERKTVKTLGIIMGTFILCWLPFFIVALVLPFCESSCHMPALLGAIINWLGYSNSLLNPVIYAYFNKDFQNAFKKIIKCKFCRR
Description: Radioligand binding assay, serotoninergic 5-HT1A receptors. Conditions: binding assay result in %, Table 5a.

The target in experiment [2] is T2, 5-HT7 receptor (Homo sapiens, UniProt P34969).
T2 construct: purchased PerkinElmer
T2 sequence (P34969 whole entry): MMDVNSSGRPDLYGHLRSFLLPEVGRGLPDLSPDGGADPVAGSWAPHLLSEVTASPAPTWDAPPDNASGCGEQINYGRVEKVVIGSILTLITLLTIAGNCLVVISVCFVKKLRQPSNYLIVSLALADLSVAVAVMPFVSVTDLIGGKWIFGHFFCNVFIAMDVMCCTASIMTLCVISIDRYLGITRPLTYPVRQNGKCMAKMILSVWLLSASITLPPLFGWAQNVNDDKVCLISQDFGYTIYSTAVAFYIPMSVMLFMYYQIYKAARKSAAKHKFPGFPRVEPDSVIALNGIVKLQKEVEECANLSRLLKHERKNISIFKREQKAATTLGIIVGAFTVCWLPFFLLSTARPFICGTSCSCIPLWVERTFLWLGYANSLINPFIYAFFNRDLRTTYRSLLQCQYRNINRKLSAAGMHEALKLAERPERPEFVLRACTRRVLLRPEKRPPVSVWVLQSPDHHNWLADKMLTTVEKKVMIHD
Description: Radioligand binding assay, serotoninergic 5-HT7 receptors. Conditions: binding assay result in %, Table 5a. The method, boiled down: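 Ki values used the Cheng–Prusoff equation, with KD from Scatchard analysis, applied to IC50 from Hill fits of human 5-HT7 radioligand competition curves. Bound radioligand was counted by scintillation, and excess unlabelled ligand set the non-specific binding.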

In experiment [3] the target is T3, 5-HT6 receptor (Homo sapiens, UniProt P50406).
T3 construct: purchased PerkinElmer
T3 sequence (P50406 whole entry): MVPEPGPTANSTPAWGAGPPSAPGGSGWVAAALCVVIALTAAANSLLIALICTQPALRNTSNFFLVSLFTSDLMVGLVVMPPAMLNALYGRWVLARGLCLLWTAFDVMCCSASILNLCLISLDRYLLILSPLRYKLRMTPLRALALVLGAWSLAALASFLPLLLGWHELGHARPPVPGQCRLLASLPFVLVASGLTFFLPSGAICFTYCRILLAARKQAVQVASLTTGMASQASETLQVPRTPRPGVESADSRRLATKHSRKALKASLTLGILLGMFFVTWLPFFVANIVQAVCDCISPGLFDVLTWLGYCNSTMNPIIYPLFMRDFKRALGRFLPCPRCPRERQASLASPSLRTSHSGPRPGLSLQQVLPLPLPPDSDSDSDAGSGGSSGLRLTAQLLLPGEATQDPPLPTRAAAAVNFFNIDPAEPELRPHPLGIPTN
Description: Radioligand binding assay, serotoninergic 5-HT6 receptors. Particulars: for inhibition at 1 µM: binding assay result in %, Table 5a; for Ki: read-out: Inhibition constants Ki, 5-HT6. In short, it runs like this: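 Values are Ki from Cheng–Prusoff, taking IC50 from Hill nonlinear regression of competition curves and KD from a Scatchard plot. Specific binding was total minus binding with excess unlabelled ligand. Radioligand displacement was detected by scintillation counting, and data were also reported as percent of control specific binding.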

Experiment [4] has as its target T4, receptors D4.4 (Homo sapiens, UniProt P21917).
T4 sequence (P21917 1-419): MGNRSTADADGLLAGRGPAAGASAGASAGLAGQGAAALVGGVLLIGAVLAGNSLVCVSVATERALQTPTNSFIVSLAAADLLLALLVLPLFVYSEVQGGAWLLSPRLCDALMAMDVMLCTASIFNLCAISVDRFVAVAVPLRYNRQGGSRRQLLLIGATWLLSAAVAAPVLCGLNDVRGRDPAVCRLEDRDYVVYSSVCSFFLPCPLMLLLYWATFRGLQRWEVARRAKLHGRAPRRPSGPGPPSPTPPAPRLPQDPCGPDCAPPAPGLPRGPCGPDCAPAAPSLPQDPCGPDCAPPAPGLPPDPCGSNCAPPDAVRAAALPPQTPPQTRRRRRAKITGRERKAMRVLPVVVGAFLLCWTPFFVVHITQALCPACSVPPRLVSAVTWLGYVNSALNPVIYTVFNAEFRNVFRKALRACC
As to the kind of experiment: Radioligand binding assay, dopaminergic D4 (D4.4) receptors. Particulars: test compound 1×10^−6 M. In short, it runs like this:
(§1)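 Scintillation read-out. Specific = total − nonspecific (excess cold ligand). Data as % of control specific binding / % inhibition; IC50 by Hill fit; Ki = IC50/(1+L/KD), KD from Scatchard plot.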

In experiment [5] the target is T5, serotonin transporter (SERT) (Homo sapiens, UniProt P31645).
T5 construct: expressed in transfected cells; host or cells: CHO cells
T5 sequence (P31645 whole entry): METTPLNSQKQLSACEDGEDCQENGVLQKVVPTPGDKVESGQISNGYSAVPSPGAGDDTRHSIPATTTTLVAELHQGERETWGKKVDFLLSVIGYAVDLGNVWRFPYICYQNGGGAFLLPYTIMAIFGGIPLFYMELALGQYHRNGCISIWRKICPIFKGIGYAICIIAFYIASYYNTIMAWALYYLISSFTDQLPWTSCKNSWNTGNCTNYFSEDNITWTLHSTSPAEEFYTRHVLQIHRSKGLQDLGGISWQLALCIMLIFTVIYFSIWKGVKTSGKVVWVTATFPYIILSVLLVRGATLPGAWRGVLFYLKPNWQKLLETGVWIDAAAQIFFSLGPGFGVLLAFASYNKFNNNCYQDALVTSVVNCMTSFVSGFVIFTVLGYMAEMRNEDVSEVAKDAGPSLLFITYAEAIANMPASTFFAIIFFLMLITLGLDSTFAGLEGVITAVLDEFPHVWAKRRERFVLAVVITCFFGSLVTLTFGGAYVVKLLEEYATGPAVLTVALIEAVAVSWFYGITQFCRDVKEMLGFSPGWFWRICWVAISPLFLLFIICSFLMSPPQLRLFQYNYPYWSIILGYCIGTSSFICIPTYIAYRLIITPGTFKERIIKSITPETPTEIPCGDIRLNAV
As to the kind of experiment: Radioligand binding assay, serotonin transporter (SERT). Conditions: for inhibition at 1 µM: binding assay, test compound 1×10^−6 M; for Ki: read-out: Inhibition constants Ki for SERT, SERT. In short, it runs like this:
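Values are derived from competition curves fitted by the Hill equation to give IC50, then converted to Ki by Cheng-Prusoff with radioligand Kd from Scatchard analysis. Specific binding equals total minus non-specific (excess cold ligand), counted by scintillation, and is also expressed as percent inhibition of control.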

The target in experiment [6] is T6, H1 histaminergic receptors (Homo sapiens, UniProt P35367).
T6 construct: expressed in transfected cells; host or cells: HEK-293 cells
T6 sequence (P35367 whole entry): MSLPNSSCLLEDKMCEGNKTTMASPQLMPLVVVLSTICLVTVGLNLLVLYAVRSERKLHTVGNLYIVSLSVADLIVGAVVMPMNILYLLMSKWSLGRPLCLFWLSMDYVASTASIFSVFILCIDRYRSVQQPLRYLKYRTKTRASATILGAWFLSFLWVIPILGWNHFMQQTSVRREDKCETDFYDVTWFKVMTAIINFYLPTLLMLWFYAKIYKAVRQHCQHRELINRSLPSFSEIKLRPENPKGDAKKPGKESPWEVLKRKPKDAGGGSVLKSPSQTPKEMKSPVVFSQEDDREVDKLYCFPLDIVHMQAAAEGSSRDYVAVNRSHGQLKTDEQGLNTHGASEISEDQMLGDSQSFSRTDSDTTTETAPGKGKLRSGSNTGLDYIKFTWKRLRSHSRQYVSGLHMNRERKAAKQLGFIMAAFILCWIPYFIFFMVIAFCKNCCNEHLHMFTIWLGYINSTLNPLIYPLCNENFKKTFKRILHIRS
As to the kind of experiment: Radioligand binding assay, histaminergic H1 receptors. Conditions: human recombinant (HEK-293 cells), [3H]pyrilamine 1 nM. In short, it runs like this: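 Competition binding at human H1 receptors; specific binding taken as total minus non-specific binding in excess unlabelled ligand, scintillation read-out. IC50 from Hill-equation fit of competition curves; Ki by Cheng-Prusoff using radioligand concentration and Kd (from Scatchard plot).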

The target of experiment [7] is dopaminergic receptors D3 (Homo sapiens, UniProt P35462). As to the kind of experiment: Radioligand binding assay, dopaminergic D3 receptors. Conditions: test compound 1×10^−6 M. In short, it runs like this: as §1
Sequence of dopaminergic receptors D3 (P35462 whole entry): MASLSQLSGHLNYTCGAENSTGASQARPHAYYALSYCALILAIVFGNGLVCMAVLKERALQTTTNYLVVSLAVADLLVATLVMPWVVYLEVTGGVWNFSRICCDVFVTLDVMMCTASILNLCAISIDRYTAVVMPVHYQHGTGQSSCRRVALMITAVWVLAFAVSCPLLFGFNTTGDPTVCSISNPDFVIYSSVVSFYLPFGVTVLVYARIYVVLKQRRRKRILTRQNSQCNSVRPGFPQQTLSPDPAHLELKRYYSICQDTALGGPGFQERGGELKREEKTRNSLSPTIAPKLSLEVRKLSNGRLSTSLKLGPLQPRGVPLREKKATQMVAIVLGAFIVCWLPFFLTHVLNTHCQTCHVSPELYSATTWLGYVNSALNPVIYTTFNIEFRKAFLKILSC
Experiment [8] deals with σ receptors. As to the kind of experiment: Radioligand binding assay, σ receptors. Conditions: rat cerebral cortex, [3H]DTG 8 nM. In short, it runs like this: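 Values derive from radioligand displacement, with non-specific binding defined by excess cold ligand and detection by scintillation. Hill-fit IC50s were converted to Ki via Cheng-Prusoff using Scatchard-derived Kd; percent inhibition of control specific binding also reported.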

SMILES strings stand for the structures.

As usually defined, the inhibition is the relative decrease from the control value, in per cent. The term Ki denotes a measure of affinity in units of concentration, obtained from inhibition or displacement. On to `Cc1cccc(S(=O)(=O)NC2CCN(CCCc3c[nH]c4ccc(Cl)cc34)C2)c1` (stereo not drawn) [Compound 86, N-[1-[3-(5-chloro-1H-indol-3-yl)propyl]pyrrolidin-3-yl]-3-methyl-benzenesulphonamide], for which the inhibition at 1 µM in experiment [1] stood at 101%; in experiment [2], 98%; in experiment [3], 98%; in experiment [4], 88%; in experiment [5], 105%; in experiment [6], 70%. Moreover, the inhibition at 1 µM in experiment [7] stood at 97%. Also, the Ki in experiment [3] was determined as 13 nM; in experiment [5] it was 1.1 nM. Moreover, the “σ [%]” value in experiment [8] worked out at 65%.
Consider `CC1(C)Cc2cccc(OCCN3CCC(NS(=O)(=O)c4cccc(O)c4)C3)c2O1` (stereo not drawn) [Compound 107, N-[1-[2-[(2,2-Dimethyl-3H-benzofuran-7-yl)oxy]ethyl]pyrrolidin-3-yl]-3-hydroxybenzenesulphonamide], for which the inhibition at 1 µM in experiment [1] was 100%; in experiment [2], 84%; in experiment [3], 39%; in experiment [4] it was 83%; in experiment [5], -4%; in experiment [6] it was 30%. In experiment [7], the inhibition at 1 µM was 97%. The “σ [%]” value in experiment [8] is 47%.
On to `CC1(C)Cc2cccc(OCCN3CCC(NS(=O)(=O)c4ccc5ccccc5c4)C3)c2O1` (stereo not drawn) [Compound 108, N-[1-[2-[(2,2-Dimethyl-3H-benzofuran-7-yl)oxy]ethyl]pyrrolidin-3-yl]naphthalene-2-sulphonamide], for which the inhibition at 1 µM stood at 98% in experiment [1]; 98% in experiment [2]; 59% in experiment [3]; 85% in experiment [4]; 36% in experiment [5]; 23% in experiment [6]. The inhibition at 1 µM in experiment [7] came to 95%. Further, the “σ [%]” value in experiment [8] is given as 45%.
With `O=S(=O)(NC1CCN(CCOc2cccc3ccccc23)C1)c1ccc2ccccc2c1` (stereo not drawn) [Compound 116, N-[1-[2-(1-Naphthyloxy)ethyl]pyrrolidin-3-yl]naphthalene-2-sulphonamide], the inhibition at 1 µM was 99% in experiment [1]; -49% in experiment [2]; 95% in experiment [3]; 64% in experiment [4]; 95% in experiment [5]; 98% in experiment [7]. Also, the Ki was found to be 71 nM in experiment [3] and 31 nM in experiment [5]. For the same molecule, the “σ [%]” value in experiment [8] came out at 56%.
For `O=S(=O)(NCC1CN(CCOc2cccc3ccccc23)C1)c1ccc2ccccc2c1` [Compound 122, N-[[1-[2-(1-Naphthyloxy)ethyl]azetidin-3-yl]methyl]naphthalene-2-sulphonamide], the inhibition at 1 µM was 99% in experiment [1]; 100% in experiment [2]; 99% in experiment [3]; 63% in experiment [4]; 98% in experiment [5]; 100% in experiment [7]. The Ki was 13 nM in experiment [3] and 17 nM in experiment [5]. In addition, the “σ [%]” value in experiment [8] was 81%.
As to `O=S(=O)(NCC1CCN(CCOc2cccc3ccccc23)C1)c1ccc2ccccc2c1` (stereo not drawn) [Compound 124, N-[[1-[2-(1-Naphthyloxy)ethyl]pyrrolidin-3-yl]methyl]naphthalene-2-sulphonamide], the inhibition at 1 µM came to 99% in experiment [1]; 99% in experiment [2]; 99% in experiment [3]; 54% in experiment [4]; 100% in experiment [5]; 94% in experiment [7]. Moreover, in experiment [8], the “σ [%]” value stood at 82%.
Take `Cc1c(S(=O)(=O)NCC2CN(CCCc3noc4cc(F)ccc34)C2)sc2ccc(F)cc12` [Compound 130, 5-Fluoro-N-[[1-[3-(6-fluoro-1,2-benzoxazol-3-yl)propyl]azetidin-3-yl]methyl]-3-methyl-benzothiophene-2-sulphonamide]: the inhibition at 1 µM in experiment [1] was 85%; in experiment [2], 98%; in experiment [3] it was 98%; in experiment [4], 67%; in experiment [5] it was 64%; in experiment [6], 51%. Moreover, the inhibition at 1 µM in experiment [7] worked out at 94%. The Ki in experiment [3] came out at 9.7 nM. Besides, the “σ [%]” value in experiment [8] turned out to be 94%.
Turning to `Cc1c(S(=O)(=O)NCC2CN(CCCc3noc4cc(F)ccc34)C2)sc2ccc(Cl)cc12` [Compound 131, 5-Chloro-N-[[1-[3-(6-fluoro-1,2-benzoxazol-3-yl)propyl]azetidin-3-yl]-methyl]-3-methyl-benzothiophene-2-sulphonamide], the inhibition at 1 µM in experiment [1] was 87%; in experiment [2], 95%; in experiment [3], 97%; in experiment [4], 50%; in experiment [5], 55%; in experiment [6], 51%. Also, the inhibition at 1 µM in experiment [7] was 94%. Besides, in experiment [3], the Ki was 9 nM. Besides, the “σ [%]” value in experiment [8] turned out to be 92%.
Consider `O=S(=O)(NCC1CN(CCCc2noc3cc(F)ccc23)C1)c1ccc2scnc2c1` [Compound 132, N-[[1-[3-(6-Fluoro-1,2-benzoxazol-3-yl)propyl]azetidin-3-yl]methyl]-1,3-benzothiazole-5-sulphonamide], for which the inhibition at 1 µM worked out at 57% in experiment [1]; 94% in experiment [2]; 69% in experiment [3]; 39% in experiment [4]; 20% in experiment [5]; 33% in experiment [6]. Further, in experiment [7], the inhibition at 1 µM stood at 60%. Further, in experiment [8], the “σ [%]” value amounted to 80%.
On to `O=S(=O)(NCC1CN(CCCc2noc3cc(F)ccc23)C1)c1cccc2ccccc12` [Compound 133, N-[[1-[3-(6-Fluoro-1,2-benzoxazol-3-yl)propyl]azetidin-3-yl]methyl]-naphthalene-1-sulphonamide], for which the inhibition at 1 µM in experiment [1] stood at 52%; in experiment [2], 97%; in experiment [3], 92%; in experiment [4] it was 88%; in experiment [5] it was 42%; in experiment [6], 58%. In experiment [7], the inhibition at 1 µM is 74%. Also, the “σ [%]” value in experiment [8] came to 93%.
On to `O=S(=O)(NCC1CN(CCCc2noc3cc(F)ccc23)C1)c1ccc2ccccc2c1` [Compound 134, N-[[1-[3-(6-Fluoro-1,2-benzoxazol-3-yl)propyl]azetidin-3-yl]methyl]-naphthalene-2-sulphonamide], for which the inhibition at 1 µM came to 73% in experiment [1]; 95% in experiment [2]; 94% in experiment [3]; 77% in experiment [4]; 47% in experiment [5]; 45% in experiment [6]. The inhibition at 1 µM in experiment [7] turned out to be 80%. In addition, the “σ [%]” value in experiment [8] was 88%.
